From patent US9994528B2, “Certain amino-pyridines and amino-triazines, compositions thereof, and methods for their use” (Cytokinetics, Inc., priority 2010, dated 2018)

What follows are compounds tested on rabbit skeletal myofibrils (approximately 90% fast fibers) (assay: Activation of fast skeletal myofibrils (PUMA coupled-enzyme ATPase assay)). Settings: AC1.4 = concentration at which the compound increased the enzymatic activity by 40%; myofibril suspension at calcium level pCa25; PM12 buffer pH 6.8.
Format: biochemical
Description: Preparation of fast skeletal myofibrils. Rabbit skeletal myofibrils were prepared based upon the method of Herrmann et al. (Biochem. 32(28):7255-7263(1993). Myofibrils were prepared from rabbit psoas muscle purchased from Pel-Freez Biologicals (Arkansas) within 2 days of ordering, stored on ice. Minced muscle was homogenized in 10 volumes of ice-cold “standard” buffer (50 mM Tris, pH 7.4, 0.1 M potassium acetate, 5 mM KCl, 2 mM DTT, 0.2 mM PMSF, 10 μM leupeptin, 5 μM pepstatin, and 0.5 mM sodium azide) containing 5 mM EDTA and 0.5% Triton X-100 using an Omni-Macro homogenizer. Myofibrils were recovered by low speed centrifugation (3000 rpm for 10 minutes) and washed 2 times in the Triton X-100 containing buffer to ensure removal of cellular membrane. Following the Triton washes, myofibrils were washed 3 times in “standard” buffer containing 2 mM magnesium acetate. A final wash in assay buffer (12 mM PIPES, pH 6.8, 60 mM KCl, 1 mM DTT) was performed and brought to 10% sucrose for flash freezing in liquid nitrogen and storage at −80° C.
Activation of Fast Skeletal Myofibrils. Fast fiber activators were identified by measuring the enzymatic activity of muscle myofibril preparations using the proprietary PUMA™ (see, e.g., U.S. Pat. Nos. 6,410,254, 6,743,599, 7,202,051, and 7,378,254) assay system. Myofibril preparations consisted of rabbit skeletal muscle (approximately 90% fast fibers) that had been mechanically homogenized and washed with a detergent (triton X-100) to remove cellular membranes. This preparation retained all of the sarcomeric components in a native conformation and the enzymatic activity was still regulated by calcium. Compounds were tested using a myofibril suspension and a level of calcium sufficient to increase enzymatic activity of the myofibrils to 25% of their maximal rate (termed pCa25). Enzymatic activity was tracked via a pyruvate kinase and lactate dehydrogenase-coupled enzyme system. This assay regenerates myosin-produced ADP into ATP by oxidizing NADH, producing an absorbance change at 340 nm. The buffering system was 12 mM Pipes, 2 mM MgCl2, 1 mM DTT at pH 6.8 (PM12 buffer).
Using procedures similar to those described herein, utilizing reagents and intermediates commercially available (e.g., Sigma-Aldrich,) or readily synthesized by one of skill in the art, the compounds in Table 2 were synthesized, characterized and tested. AC1.4 values were determined according to the procedure described in Example 25, and the reported median AC1.4 values are as follows: A=<1 uM; B=1-10 uM; C=10-20 uM; D=>20 uM.

Mean AC1.4 | Compound
B (B=1-10 uM) | CC(C)(Nc1ncc(-c2ccc3[nH][nH]c(=O)c3c2)nn1)c1ncccc1F [5-(3-{[1-(3-fluoro(2-pyridyl))-isopropyl]amino}-1,2,4-triazin-6-yl)-1H-2-hydroindazol-3-one]
C (C=10-20 uM) | CC(C)(CNc1ccc(C(N)=O)cn1)c1ccc(F)cc1 [6-{[2-(4-f1uorophenyl)-2-methylpropyl]amino}pyridine-3-carboxamide]
C (C=10-20 uM) | CC(C)(CNc1ccc(C#N)cn1)c1ccc(F)cc1 [6-{[2-(4-fluorophenyl)-2-methylpropyl]amino}pyridine-3-carbonitrile]
C (C=10-20 uM) | c1ccc(-c2ccnc(NC3(c4ccccc4)CCC3)c2)cc1 [(4-phenyl(2-pyridyl))(phenylcyclobutyl)amine]
B (B=1-10 uM) | c1ccc(-c2ccc(NC3(c4ccccc4)CCC3)nc2)cc1 [(5-phenyl(2-pyridyl))(phenylcyclobutyl)amine]
C (C=10-20 uM) | CC(C)(CNc1ncc(-c2ccc3[nH]ncc3c2)nn1)c1ncccc1F [(6-(1H-indazol-5-yl)(1,2,4-triazin-3-yl))[2-(3-fluoro(2-pyridyl))-2-methylpropyl]amine]
B (B=1-10 uM) | Fc1cccnc1C1(CNc2ncc(-c3ccc4[nH]ncc4c3)nn2)CCC1 [(6-(1H-indazol-5-yl)(1,2,4-triazin-3-yl)){[(3-fluoro(2-pyridyl))cyclobutyl]methyl}amine]
C (C=10-20 uM) | CC(C)(CNc1cccc(Br)n1)c1ccc(F)cc1 [(6-bromo(2-pyridyl))[2-(4-fluorophenyl)-2-methylpropyl]amine]
D (D=>20 uM) | c1ccc(-c2cccc(NC3(c4ccccc4)CCC3)n2)cc1 [(6-phenyl(2-pyridyl))(phenylcyclobutyl)amine]
C (C=10-20 uM) | CC(C)(Nc1ncc(-c2cc(C(=O)NC[C@H](O)CO)ccc2F)nn1)c1ncccc1F [N-((2S)-2,3-dihydroxypropyl)[4-fluoro-3-(3-{[1-(3-fluoro(2-pyridyl))-isopropyl]amino}(1,2,4-triazin-6-yl))phenyl]carboxamide]
B (B=1-10 uM) | CC(=O)NCc1cnc(-c2cnc(NC[C@]3(c4ncccc4F)C[C@H](F)C3)nn2)s1 [N-({2-[3-({[3-fluoro-1-(3-fluoro(2-pyridyl))cyclobutyl]methyl}amino)-1,2,4-triazin-6-yl]-1,3-thiazol-5-yl}methyl)acetamide]
D (D=>20 uM) | COC(=O)NCCc1ccc(NCC(C)(C)c2ccc(F)cc2)nc1 [N-[2-(6-{[2-(4-fluorophenyl)-2-methylpropyl]amino}(3-pyridyl))ethyl]methoxycarboxamide]
D (D=>20 uM) | CC(=O)NCCc1ccc(NCC(C)(C)c2ccc(F)cc2)nc1 [N-[2-(6-{[2-(4-fluorophenyl)-2-methylpropyl]amino}-3-pyridyl)ethyl]acetamide]
D (D=>20 uM) | COC(=O)NCc1ccc(NCC(C)(C)c2ccc(F)cc2)nc1 [N-[(6-{[2-(4-fluorophenyl)-2-methylpropyl]amino}(3-pyridyl))methyl]methoxycarboxamide]
D (D=>20 uM) | CC(=O)NCc1cnc(-c2cnc(NC(C)(C)c3ncccc3Cl)nn2)s1 [N-{[2-(3-{[1-(3-chloro(2-pyridyl))-isopropyl]amino}-1,2,4-triazin-6-yl)-1,3-thiazol-5-yl]methyl}acetamide]
D (D=>20 uM) | CC(=O)NCc1ccc(F)c(-c2cnc(NC(C)(C)c3ncccc3F)nn2)c1 [N-{[4-fluoro-3-(3-{[1-(3-fluoro(2-pyridyl))-isopropyl]amino}(1,2,4-triazin-6-yl))phenyl]methyl}acetamide]
D (D=>20 uM) | CC(C)(Nc1ncc(-c2nccs2)nn1)c1ncccc1F [[1-(3-fluoro(2-pyridyl))-isopropyl](6-(1,3-thiazol-2-yl)(1,2,4-triazin-3-yl))amine]
D (D=>20 uM) | CC(C)(Nc1ncc(-c2ncc(CO)s2)nn1)c1ncccc1Cl [[2-(3-{[1-(3-chloro(2-pyridyl))-isopropyl]amino}-1,2,4-triazin-6-yl)-1,3-thiazol-5-yl]methan-1-ol]

Mean AC1.4 | Compound
D (D=>20 uM) | CC(C)=Cc1cccc(NCC(C)(C)c2ccc(F)cc2)n1 [[2-(4-fluorophenyl)-2-methylpropyl][6-(2-methylprop-1-enyl)(2-pyridyl)]amine]
D (D=>20 uM) | CC(C)(CNc1ccc(CCNS(C)(=O)=O)cn1)c1ccc(F)cc1 [[2-(6-{[2-(4-fluorophenyl)-2-methylpropyl]amino}(3-pyridyl))ethyl](methylsulfonyl)amine]
D (D=>20 uM) | CC(C)(CNc1cc(-c2ccc(F)cc2)ccn1)c1ccc(F)cc1 [[4-(4-fluorophenyl)(2-pyridyl)][2-(4-fluorophenyl)-2-methylpropyl]amine]
C (C=10-20 uM) | CC(C)(Nc1ncc(-c2cc(NS(C)(=O)=O)ccc2F)nn1)c1ncccc1F [[4-fluoro-3-(3-{[1-(3-fluoro(2-pyridyl))-isopropyl]amino}(1,2,4-triazin-6-yl))phenyl](methylsulfonyl)amine]
C (C=10-20 uM) | CC(C)(Nc1ncc(-c2cc(CO)ccc2F)nn1)c1ncccc1F [[4-fluoro-3-(3-{[1-(3-fluoro(2-pyridyl))-isopropyl]amino}(1,2,4-triazin-6-yl))phenyl]methan-1-ol]
A (A=<1 uM) | CC(C)(CNc1ncc(-c2ccc3[nH]nc(N)c3c2)nn1)c1ccc(F)cc1 [[6-(3-amino(1H-indazol-5-yl))(1,2,4-triazin-3-yl)][2-(4-fluorophenyl)-2-methylpropyl]amine]
B (B=1-10 uM) | Nc1n[nH]c2ccc(-c3cnc(NCC4(c5ncccc5F)CCC4)nn3)cc12 [[6-(3-amino(1H-indazol-5-yl))(1,2,4-triazin-3-yl)]{[(3-fluoro(2-pyridyl))cyclobutyl]methyl}amine]
B (B=1-10 uM) | CC(C)(Nc1ncc(-c2cc(N)ccc2F)nn1)c1ncccc1F [[6-(3-amino-6-fluorophenyl)(1,2,4-triazin-3-yl)][1-(3-fluoro(2-pyridyl))-isopropyl]amine]
D (D=>20 uM) | CC(C)(CNc1cccc(-c2ccc(F)cc2)n1)c1ccc(F)cc1 [[6-(4-fluorophenyl)(2-pyridyl)][2-(4-fluorophenyl)-2-methylpropyl]amine]
B (B=1-10 uM) | CC(C)(Nc1ncc(-c2cc(NS(N)(=O)=O)ccc2F)nn1)c1ncccc1F [amino[4-fluoro-3-(3-{[1-(3-fluoro(2-pyridyl))-isopropyl]amino}(1,2,4-triazin-6-yl))phenyl]sulfonamide]
D (D=>20 uM) | COC(=O)c1ccc(F)c(-c2cnc(NCC(C)(C)c3ncccc3Cl)nn2)c1 [methyl 3-(3-{[2-(3-chloro(2-pyridyl))-2-methylpropyl]amino}(1,2,4-triazin-6-yl))-4-fluorobenzoate]
B (B=1-10 uM) | COC(=O)c1ccc(F)c(-c2cnc(NCC3(c4ncccc4Cl)CCC3)nn2)c1 [methyl 3-[3-({[(3-chloro(2-pyridyl))cyclobutyl]methyl}amino)(1,2,4-triazin-6-yl)]-4-fluorobenzoate]
D (D=>20 uM) | COC(=O)c1ccc(-c2cnc(NC(C)(C)c3ncccc3F)nn2)c(F)c1 [methyl 3-fluoro-4-(3-{[1-(3-fluoro(2-pyridyl))-isopropyl]amino}(1,2,4-triazin-6-yl))benzoate]
C (C=10-20 uM) | COC(=O)c1ccc(F)c(-c2cnc(NCC3(c4ccccn4)CCC3)nn2)c1 [methyl 4-fluoro-3-(3-{[(2-pyridylcyclobutyl)methyl]amino}(1,2,4-triazin-6-yl))benzoate]
D (D=>20 uM) | COC(=O)c1ccc(F)c(-c2cnc(NC(C)(C)c3cccc(S(C)(=O)=O)c3)nn2)c1 [methyl 4-fluoro-3-[3-({1-methyl-1-[3-(methylsulfonyl)phenyl]ethyl}amino)(1,2,4-triazin-6-yl)]benzoate]
B (B=1-10 uM) | OCc1cnc(-c2cnc(NC[C@]3(c4ncccc4F)C[C@H](F)C3)nn2)s1 [{2-[3-({[3-fluoro-1-(3-fluoro(2-pyridyl))cyclobutyl]methyl}amino)-1,2,4-triazin-6-yl]-1,3-thiazol-5-yl}methan-1-ol]
C (C=10-20 uM) | OCc1cnc(-c2cnc(NCC3(c4ncccc4F)CCC3)nn2)s1 [{2-[3-({[(3-fluoro-2-pyridyl)cyclobutyl]methyl}amino)-1,2,4-triazin-6-yl]-1,3-thiazol-5-yl}methan-1-ol]
